Key:
HEK293-GnRHR cells = target: T1, HEK293-GnRHR cells (Homo sapiens, UniProt P30968); test: CRE-luciferase reporter assay; type: cell-based
T1 construct: GFP; expressed in transfected cells
T1 sequence (P30968 1-328): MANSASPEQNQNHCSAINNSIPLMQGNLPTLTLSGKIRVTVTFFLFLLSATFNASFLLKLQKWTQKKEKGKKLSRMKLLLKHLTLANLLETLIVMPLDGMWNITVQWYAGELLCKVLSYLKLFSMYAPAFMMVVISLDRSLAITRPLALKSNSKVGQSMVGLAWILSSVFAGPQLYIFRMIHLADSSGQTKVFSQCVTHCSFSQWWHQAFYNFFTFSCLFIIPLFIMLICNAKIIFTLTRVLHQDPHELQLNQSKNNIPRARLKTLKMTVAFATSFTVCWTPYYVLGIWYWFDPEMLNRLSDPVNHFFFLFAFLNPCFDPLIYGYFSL
Procedure: Human embryonic kidney cell line (HEK293), and mouse cancer cell lines (MC38, 4T1) were purchased from the American Type Culture Collection (Manassas, VA, USA). All cell lines were grown in Dulbecco's Modified Essential Medium (DMEM) or Roswell Park Memorial Institute (RPMI) 1640 supplemented with 10% FBS, 100 U/mL penicillin, and 100 μg/mL streptomycin (WelGENE, Daegu, South Korea) in a humidified atmosphere of 5% CO2 at 37° C. To obtain GnRHR-overexpressing HEK293 (HEK293-GnRHR) cells, transfection of the pCMV-AC-GFP-GnRHR vector (HEK293-GnRHR) was performed using Lipofectamine™ 3000 according to the manufacturer's instructions (Cat. 100022052, Thermo Fisher Scientific, Waltham, MA, USA). Colonies of geneticin-resistant cells were selected by adding G418 (800 μg/mL, Sigma) to the culture medium. The HEK293-pCMV-AC-GFP vector (HEK293-Vector) cells were used as a mock-transfection group.
The HEK293-pCMV6-AC-GFP and HEK293-GnRHR cells (4×10^4 cells/well) were grown in 96-well plates and co-transfected with a luciferase reporter plasmid containing a cAMP response element (CRE) using Lipofectamine 3000 (Life Technologies). The transfected cells were exposed to different concentrations of peptide for 24 h, and the promoter activity was measured by a dual-luciferase reporter assay system (BPS Bioscience). The firefly and Renilla luciferase activities were measured using a microplate luminometer (Thermo, Varioskan LUX Multimode Microplate Reader). The calculation of relative luciferase activities involved the normalization of the firefly luciferase activity […].

LNCaP tumors = test: LNCaP xenograft model, tumor volume, tumor weight and body weight (FIG. 17); type: in vivo; conditions: LNCaP xenograft BALB/c nude mice, 1 mg/kg/day s.c., 13 days
Procedure: All mice were purchased from Central Lab Animal Inc. ([…]). They were raised in a 12 h environmental light/dark cycle with controlled temperature (22±2° C.) conditions. The experimental protocol was approved by the Sungkyunkwan University Institutional Animal Care and Use Committee (SKKUIACUC2021-06-27-1, SKKUIACUC2023-01-07-1). For the establishment of tumors, LNCaP (1×10^7), MC38 (2×10^5), and 4T1 (1×10^6) suspended in serum-free media containing 50% Matrigel was subcutaneously administered in the right flank of mice, respectively. The tumor volumes (V) were calculated using a caliper and the standard equation: V (mm^3)=0.52 (ab^2) (a=length, b=width). Once the tumor reached 100-200 mm^3, the mice were randomly divided into different groups and subcutaneously injected with a vehicle or each peptide every day.
To investigate the anticancer effect of HS1002, the present inventors observed the volume of cancer cells after transplanting the cancer cells into experimental animals. Specifically, mice (4-week-old male BALB/c nude mice; Central Lab. Animal Inc., Seoul, Korea) were prepared, and tumor cells (1×10^7 LNCaP cells) suspended in 1 mL of a serum-free medium containing 50% Matrigel were percutaneously injected into the upper flank of each nude mouse. When the tumor cell volume reached about 200 mm^3, the mice were randomly assigned to a vehicle control group, a leuprolide acetate-treated group, and test groups (GV1001-treated group and HS1002-treated group), respectively. Leuprolide acetate (0.1 mg/kg/day) and GV1001 and HS1002 (1 mg/kg/day) were injected subcutaneously for 13 days.

[1] = tested on: Ki-67 and hTERT in LNCaP tumor tissue; test: Ki-67 immunohistochemistry and hTERT immunoblotting in xenograft tumor tissue (FIG. 18); type: in vivo, mouse; conditions: s.c. administration, compared with the control group
Procedure: Mice were sacrificed, and the excised tumors were fixed in 10% formalin and impregnated with paraffin. For pathological examination, immunohistochemistry was performed by the avidin-biotin complex method using Ki-67 antibodies. The immune response was visualized with a reagent (3,3-diaminobenzidine) and counter-stained with Mayer's hematoxylin. TUNEL assay in tissue was performed using ApopTag Plus Peroxidase in Situ Apoptosis Detection kits (Intergen, Purchase, NY)) according to the manufacturer's indications. In summary, paraffin was removed from slides, and the slides were placed in 3% hydrogen peroxide to inhibit endogenous peroxidase. The slides were incubated in a reaction buffer containing an enzyme (terminal deoxynucleotidyl transferase) at 37° C. for 1 h. The slides were incubated with peroxidase-conjugated anti-digoxigenin antibodies for 30 min, and the reaction product was visualized with a solution containing 2 mmol hydrogen peroxide (0.03% 3,3-diaminobenzidine solution). Counterstaining was performed with 0.5% methyl green. Ki-67- and TUNEL-positive cells were counted and expressed as an average of the five highest areas within a single×200 field. A portion of tumor tissue was homogenized, followed by immunoblotting for hTERT.

With CCNC(=O)[C@@H]1CCCN1C(=O)[C@@H](NC(=O)[C@H](Cc1ccccc1)NC(=O)[C@H](CCCNC(=N)N)NC(=O)[C@H](CC(C)C)NC(=O)[C@H](CCCNC(=N)N)NC(=O)[C@H](Cc1ccc(O)cc1)NC(=O)[C@H](CO)NC(=O)[C@H](Cc1c[nH]c2ccccc12)NC(=O)[C@H](Cc1c[nH]cn1)NC(=O)[C@@H]1CCC(=O)N1)[C@@H](C)CC [HS1002] the “CRE-luciferase activity compared to the control” value (HEK293-GnRHR cells; 10 μM) was 2 fold, the “cAMP-mediated promoter binding activity (CRE-luciferase), concentration dependence” value (HEK293-GnRHR cells; 24 h) was “concentration-dependently enhanced” and the other toxicity (LNCaP tumors) was “no other toxicity”. The “reduction of tumor volume” value (LNCaP tumors) was “about 50%”, the “reduction of tumor weight” value (LNCaP tumors) was “about 50%” and the “Ki-67 protein expression level in tumor tissues” value [1] was “distinctively reduced”. For the same compound, the “hTERT protein expression level in tumor tissues” value [1] was “distinctively reduced”.

Source: patent publication US20240247031A1, “COMPOSITION FOR TREATING CANCER CONTAINING TELOMERASE-TARGETING GNRH ANTAGONIST-DERIVED PEPTIDE HS1002” (Research & Business Foundation Sungkyunkwan University, priority 2023, published 2024)
